According to patent US9567300B2, “Hexahydropentaleno derivatives, preparation method and use in medicine thereof” (SUNSHINE LAKE PHARMA CO., LTD., priority 2012, dated 2017):

How the values were obtained:
[1] = target: T1, DPP-IV (Homo sapiens, UniProt P27487); test: Active inhibition DPP-IV assay (Gly-Pro-AMC substrate, fluorescence); assay type: biochemical; details: Gly-Pro-AMC 10 μM, 25 mM Tris pH 8.0
T1 construct: purchased R&D 1180-SE
Description: (§1) The following methods were used for testing the inhibitive action of the compound disclosed herein against DPP-IV, DPP-8 and DPP-9 enzymatic activity. The inhibitive ability of the compound disclosed herein against enzymatic activity of DPP-IV, DPP-8 and DPP-9 was tested. The measurements of the inhibition ratio or the 50% inhibiting concentration IC50 of every compound were based on a fixed quantity of enzyme-substrate mixtures and different concentrations of the test compounds.
DPP-IV enzyme was purchased from R&D, Catalog No. 1180-SE.
(§2) The test compound was dissolved in an appropriate amount of DMSO to prepare 100 mM mother liquor, which was divided into EP tubes and preserved at −20° C. The mother liquor was diluted with an assay buffer to prepare solutions with required concentrations. Sample solutions with different concentrations (4 μL) and certain concentration of DPP-IV (DPP-8 or DPP-9) solution (4 μL) were added into 384-well plates in turn. Referred to the instruction manual, Gly-Pro-AMC was selected as a substrate and the concentration thereof was 10 μM. The 16 mM mother liquor was prepared from the substrate and preserved at −20° C. for use. The 16 mM mother liquor was diluted with an assay buffer to a solution of known concentration. The assay buffer of DPP-IV was 25 mM Tris, and its pH was 8.0. The assay buffers of DPP-8 and DPP-9 were 50 mM Tris, and their pH was 7.5. The substrate mother liquor was diluted with an assay buffer, and the mixture (4 μL) was added into 384-well plates to prepare final solution concentration. The whole process was carried out in an ice bath. After the addition of the components of the assay system was completed, the system was centrifuged. The supernatant was then transferred to an Infinite F200 multifunctional microplate reader, and 20 fluorescence values were recorded every 30 sec. And then Slope (V0) was calculated directly by the software of microplate reader, fetching the data in the linear range. The measured reaction rate and the corresponding inhibition concentration were analyzed. Percent inhibition is I(%)=(V0−Vi)/V0×100%. Vi represents the initial reaction rate at different inhibition concentrations. V0 represents the initial reaction rate without inhibitor. Vi/V0 represents the inhibition level of inhibitor. Relevant curve chart was made with inhibition concentration as a horizontal coordinate and the value of Vi/V0 as a vertical coordinate. The IC50 values were calculated by Graph Pad Prism statistical analysis software.

[2] = target: T2, DPP-9 (Homo sapiens, UniProt Q86TI2); test: Active inhibition DPP-9 assay (Gly-Pro-AMC substrate, fluorescence); assay type: biochemical; details: Gly-Pro-AMC 10 μM, 50 mM Tris pH 7.5
T2 construct: purchased Bioscience 80090
T2 sequence (Q86TI2 whole entry): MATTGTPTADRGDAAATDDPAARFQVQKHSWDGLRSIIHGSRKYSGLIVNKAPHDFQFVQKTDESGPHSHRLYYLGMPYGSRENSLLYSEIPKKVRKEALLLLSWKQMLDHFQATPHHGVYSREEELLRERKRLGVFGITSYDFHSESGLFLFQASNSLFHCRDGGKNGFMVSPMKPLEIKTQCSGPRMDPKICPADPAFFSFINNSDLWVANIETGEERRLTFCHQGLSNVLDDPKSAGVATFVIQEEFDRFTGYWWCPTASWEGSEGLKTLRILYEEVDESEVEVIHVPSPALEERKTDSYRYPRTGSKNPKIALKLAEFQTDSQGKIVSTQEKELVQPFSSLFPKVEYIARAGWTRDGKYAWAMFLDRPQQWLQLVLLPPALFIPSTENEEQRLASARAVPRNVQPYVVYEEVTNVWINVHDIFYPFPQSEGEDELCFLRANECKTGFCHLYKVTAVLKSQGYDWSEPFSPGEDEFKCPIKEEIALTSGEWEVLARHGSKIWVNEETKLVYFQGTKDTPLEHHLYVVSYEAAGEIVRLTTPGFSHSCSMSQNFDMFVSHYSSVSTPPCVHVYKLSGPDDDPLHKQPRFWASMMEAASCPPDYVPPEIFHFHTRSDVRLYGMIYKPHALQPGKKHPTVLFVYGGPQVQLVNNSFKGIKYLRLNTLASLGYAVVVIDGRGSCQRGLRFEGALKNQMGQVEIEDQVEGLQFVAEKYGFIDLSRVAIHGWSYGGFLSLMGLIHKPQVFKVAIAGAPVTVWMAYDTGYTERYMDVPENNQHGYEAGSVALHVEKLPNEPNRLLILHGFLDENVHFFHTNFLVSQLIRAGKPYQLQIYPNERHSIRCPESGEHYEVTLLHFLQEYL
Description: as §1
DPP-9 enzyme was purchased from Bioscience, Catalog No. 80090.
as §2

[3] = target: T3, DPP-8 (Homo sapiens, UniProt Q6V1X1); test: Active inhibition DPP-8 assay (Gly-Pro-AMC substrate, fluorescence); assay type: biochemical; details: Gly-Pro-AMC 10 μM, 50 mM Tris pH 7.5
T3 construct: purchased Biomol SE-827
T3 sequence (Q6V1X1 whole entry): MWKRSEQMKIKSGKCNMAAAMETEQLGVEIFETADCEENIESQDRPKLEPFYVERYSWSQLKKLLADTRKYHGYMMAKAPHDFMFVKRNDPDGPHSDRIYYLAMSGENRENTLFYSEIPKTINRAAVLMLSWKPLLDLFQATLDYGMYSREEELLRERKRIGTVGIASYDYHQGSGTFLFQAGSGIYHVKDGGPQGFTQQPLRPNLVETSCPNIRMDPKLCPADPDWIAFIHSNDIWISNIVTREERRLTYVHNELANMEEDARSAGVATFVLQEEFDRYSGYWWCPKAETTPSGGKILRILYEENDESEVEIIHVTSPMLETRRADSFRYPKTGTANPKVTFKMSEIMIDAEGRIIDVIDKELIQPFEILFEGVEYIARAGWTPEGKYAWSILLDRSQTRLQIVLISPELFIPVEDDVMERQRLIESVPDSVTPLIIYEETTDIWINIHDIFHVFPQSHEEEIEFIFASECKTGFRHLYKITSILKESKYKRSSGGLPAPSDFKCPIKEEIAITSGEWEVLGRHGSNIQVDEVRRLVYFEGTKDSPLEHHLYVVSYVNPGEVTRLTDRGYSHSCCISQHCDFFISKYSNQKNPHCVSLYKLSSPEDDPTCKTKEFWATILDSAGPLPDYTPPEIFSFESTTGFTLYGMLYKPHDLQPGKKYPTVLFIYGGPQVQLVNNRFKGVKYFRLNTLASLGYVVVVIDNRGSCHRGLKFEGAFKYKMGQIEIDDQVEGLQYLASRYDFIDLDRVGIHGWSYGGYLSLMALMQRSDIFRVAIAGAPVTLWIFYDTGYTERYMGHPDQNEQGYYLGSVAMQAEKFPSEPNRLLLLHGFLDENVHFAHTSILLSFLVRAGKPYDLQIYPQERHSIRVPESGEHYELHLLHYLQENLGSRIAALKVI
Description: as §1
DPP-8 enzyme was purchased from Biomol, Catalog No. SE-827.
as §2

[4] = tested on: normal C57BL/6 mice; test: Effects of DPP-IV inhibitors on the blood glucose of normal C57BL/6 mice (oral glucose tolerance); assay type: in vivo; details: oral 5 mg/kg; for Nor-sugar rate % (5 mg/kg): male C57BL/6 mice, glucose 2.5 g/kg by gavage 30 min after administration; for hypoglycemic activities for C57BL/6 mice: conclusion in words
Description: The effects of the test compounds on the oral glucose tolerance of normal C57BL/6 mice were observed, and the hypoglycemic activities of these compounds in vivo were evaluated preliminarily.
Preparation procedure: Drugs were accurately weighed, and 5 mg of compounds of examples 3, 9 15, 16 and 17 were dissolved respectively in 20 mL of normal saline to obtain 0.25 mg/mL solutions.
Administrated Dose: The oral dose was 5 mg/kg and the gavage dose was 0.02 mL/g.
Test Method: The normal male C57BL/6 mice were grouped randomly into a blank control group, a positive control group, and treatment groups having 7 mice each group.
Administration and Serum Glucose Determination: C57BL/6 mice of each group were fasted for 18 hours before the experiment. The blood was drawn from the caudal vein of the mice and the glucose level was measured by using a blood-glucose meter. After detection, 0.25 mg/mL of positive control, 0.25 mg/mL of examples 3, 9, 15, 16 and 17 and normal saline were respectively administered to the positive control group, treatment groups and blank control group by intragastric administration. The blood glucose level (0 min) of positive control group was measured in 60 min after administration. The blood glucose levels (0 min) of the other groups were measured in 30 min after administration, and then glucose (2.5 g/kg) was administered to the mice through gavage. The blood was drawn from the caudal vein of the mice in 15 min, 30 min, 45 min, 60 min, 120 min after administration. The blood glucose levels of C57BL/6 mice were measured continuously by blood-glucose meter.
1. Glucose concentration-time curve was plotted, and AUC from 0 to 120 min and hypoglycemic rate of each dosage group at blood glucose peak were calculated.
2. Experimental data were represented in x±SD. The data were analyzed by SPSS 16.0 software. The data were compared between multiple groups using nonparametric Kruskal-Wallis H test method.

T1 sequence (P27487 whole entry): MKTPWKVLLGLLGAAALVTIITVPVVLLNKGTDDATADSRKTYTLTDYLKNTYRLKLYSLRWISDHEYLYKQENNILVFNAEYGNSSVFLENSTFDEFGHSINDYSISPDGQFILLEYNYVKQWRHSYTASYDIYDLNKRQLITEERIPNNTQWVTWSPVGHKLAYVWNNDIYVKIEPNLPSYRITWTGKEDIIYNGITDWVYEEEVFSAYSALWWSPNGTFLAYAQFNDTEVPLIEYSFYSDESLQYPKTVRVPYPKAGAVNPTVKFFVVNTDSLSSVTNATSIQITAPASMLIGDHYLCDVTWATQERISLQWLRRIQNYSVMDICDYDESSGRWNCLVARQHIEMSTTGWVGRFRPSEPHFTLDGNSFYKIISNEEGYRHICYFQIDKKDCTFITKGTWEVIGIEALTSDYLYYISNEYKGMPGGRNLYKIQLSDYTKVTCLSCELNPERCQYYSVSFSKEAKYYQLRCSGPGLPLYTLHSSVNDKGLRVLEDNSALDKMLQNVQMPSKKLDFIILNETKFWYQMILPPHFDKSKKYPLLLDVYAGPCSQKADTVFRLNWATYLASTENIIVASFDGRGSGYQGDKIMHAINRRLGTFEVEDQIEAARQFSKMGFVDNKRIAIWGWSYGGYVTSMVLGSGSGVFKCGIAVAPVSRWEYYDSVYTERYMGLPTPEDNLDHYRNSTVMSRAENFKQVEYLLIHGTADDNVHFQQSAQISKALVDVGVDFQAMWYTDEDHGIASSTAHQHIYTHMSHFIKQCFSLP

## C[C@@]1(NCC(=O)N2C3C[C@H]3C[C@H]2C#N)C[C@H]2C[C@@H](O)C[C@H]2C1 (stereo partly drawn) [Example 12, (1S,3S,5S)-2-(2-(((2r,3aR,5S,6aS)-5-hydroxy-2-methyloctahydropentalen-2-yl)amino)acetyl)-2-azabicyclo[3.1.0]hexane-3-carbonitrile]
[1]
  IC50: 171 nM

## C#CC1C[C@@H]2C[C@@](C)(NCC(=O)N3C[C@@H](F)C[C@H]3C#N)C[C@@H]2C1 (stereo partly drawn) [Example 20, (2S,4S)-1-(2-(((2s,3aR,6aS)-5-ethynyl-2-methyloctahydropentalen-2-yl)amino)acetyl)-4-fluoropyrrolidine-2-carbonitrile]
[1]
  IC50: 4.18 nM
[2]
  IC50: 91 nM
[3]
  IC50: 2070 nM

## C[C@@]1(NCC(=O)N2CCC[C@H]2C#N)C[C@H]2C[C@@H](OC3CC3)C[C@H]2C1 [Example 14, (S)-1-(2-(((2r,3aR,5S,6aS)-5-cyclopropoxy-2-methyloctahydropentalen-2-yl)amino)acetyl)pyrrolidine-2-carbonitrile]
[1]
  IC50: 9.23 nM

## CO[C@H]1C[C@@H]2C[C@@](C)(NCC(=O)N3C[C@@H](F)C[C@H]3C#N)C[C@@H]2C1 [Example 4, (2S,4S)-4-fluoro-1-(2-(((2r,3aR,5R,6aS)-5-methoxy-2-methyloctahydropentalen-2-yl)amino)acetyl)pyrrolidine-2-carbonitrile]
[1]
  IC50: 2.5 nM
[2]
  IC50: 12.4 nM
[3]
  IC50: 900 nM

## CO[C@@H]1C[C@@H]2C[C@@](C)(NCC(=O)N3CCC[C@H]3C#N)C[C@@H]2C1 [Example 1, (S)-1-(2-(((2r,3aR,5S,6aS)-5-methoxy-2-methyloctahydropentalen-2-yl)amino)acetyl)pyrrolidine-2-carbonitrile]
[1]
  IC50: 11.3 nM
[2]
  IC50: 4600 nM
[3]
  IC50: 50500 nM

## C[C@@]1(NCC(=O)N2C[C@@H](F)C[C@H]2C#N)C[C@H]2C[C@@H](OC3CC3)C[C@H]2C1 [Example 13, (2S,4S)-1-(2-(((2r,3aR,5S,6aS)-5-cyclopropoxy-2-methyloctahydropentalen-2-yl)amino)acetyl)-4-fluoropyrrolidine-2-carbonitrile]
[1]
  IC50: 9.25 nM

## CCO[C@@H]1C[C@@H]2C[C@@](C)(NCC(=O)N3C[C@@H](F)C[C@H]3C#N)C[C@@H]2C1 [Example 7, (2S,4S)-1-(2-(((2r,3aR,5S,6aS)-5-ethoxy-2-methyloctahydropentalen-2-yl)amino)acetyl)-4-fluoropyrrolidine-2-carbonitrile]
[1]
  IC50: 4.29 nM
[2]
  IC50: 27 nM
[3]
  IC50: 2670 nM

## CO[C@H]1C[C@@H]2C[C@@](C)(NCC(=O)N3CCC[C@H]3C#N)C[C@@H]2C1 [Example 10, (S)-1-(2-(((2r,3aR,5R,6aS)-5-methoxy-2-methyloctahydropentalen-2-yl)amino)acetyl)pyrrolidine-2-carbonitrile]
[1]
  IC50: 2.43 nM
[2]
  IC50: 62 nM
[3]
  IC50: 5980 nM

## C[C@@]1(NCC(=O)N2C[C@@H](F)C[C@H]2C#N)C[C@H]2CC3(CCO3)C[C@H]2C1 (stereo partly drawn) [Example 19, (2S,4S)-4-fluoro-1-(2-(((3a′R,5′r,6a′S)-5′-methylhexahydro-1′H-spiro[oxetane-2,2′-pentalen]-5′-yl)amino)acetyl)pyrrolidine-2-carbonitrile]
[1]
  IC50: 25.8 nM

## C[C@@]1(NCC(=O)N2C[C@@H](F)C[C@H]2C#N)C[C@H]2C[C@@H](OCC3CC3)C[C@H]2C1 [Example 8, (2S,4S)-1-(2-(((2r,3aR,5S,6aS)-5-(cyclopropylmethoxy)-2-methyloctahydropentalen-2-yl)amino)acetyl)-4-fluoropyrrolidine-2-carbonitrile]
[1]
  IC50: 6.91 nM
[2]
  IC50: 31 nM
[3]
  IC50: 3800 nM

## CC(=O)O[C@@H]1C[C@@H]2C[C@@](C)(NCC(=O)N3CCC[C@H]3C#N)C[C@@H]2C1 [Example 18, (2S,3aR,5r,6aS)-5-((2-((S)-2-cyanopyrrolidin-1-yl)-2-oxoethyl)amino)-5-methyloctahydropentalen-2-yl acetate]
[1]
  IC50: 2.53 nM
[2]
  IC50: 242 nM
[3]
  IC50: 20100 nM

## CCO[C@@H]1C[C@@H]2C[C@@](C)(NCC(=O)N3CCC[C@H]3C#N)C[C@@H]2C1 [Example 6, (S)-1-(2-(((2r,3aR,5S,6aS)-5-ethoxy-2-methyloctahydropentalen-2-yl)amino)acetyl)pyrrolidine-2-carbonitrile]
[1]
  IC50: 4.52 nM
[2]
  IC50: 193 nM
[3]
  IC50: 18200 nM

## C[C@@]1(NCC(=O)N2C[C@@H](F)C[C@H]2C#N)C[C@H]2C[C@@H](O)C[C@H]2C1 [Example 3, (2S,4S)-4-fluoro-1-(2-(((2r,3aR,5S,6aS)-5-hydroxy-2-methyloctahydropentalen-2-yl)amino)acetyl)pyrrolidine-2-carbonitrile]
[4]
  Nor-sugar rate % (5 mg/kg): 35.96%
[1]
  IC50: 2.49 nM
[2]
  IC50: 93 nM
[3]
  IC50: 3920 nM

## C[C@@]1(NCC(=O)N2C[C@@H](F)C[C@H]2C#N)C[C@H]2CC(C#N)C[C@H]2C1 (stereo partly drawn) [Example 15, (2S,4S)-1-(2-(((2s,3aR,6aS)-5-cyano-2-methyloctahydropentalen-2-yl)amino)acetyl)-4-fluoropyrrolidine-2-carbonitrile]
[4]
  Nor-sugar rate % (5 mg/kg): 24.72%
  hypoglycemic activities for C57BL/6 mice: good hypoglycemic activities
[1]
  IC50: 1.56 nM
[2]
  IC50: 20 nM
[3]
  IC50: 1260 nM

## CC(=O)O[C@@H]1C[C@@H]2C[C@@](C)(NCC(=O)N3C[C@@H](F)C[C@H]3C#N)C[C@@H]2C1 [Example 17, (2S,3aR,5r,6aS)-5-((2-((2S,4S)-2-cyano-4-fluoropyrrolidin-1-yl)-2-oxoethyl)amino)-5-methyloctahydropentalen-2-yl acetate]
[4]
  Nor-sugar rate % (5 mg/kg): 30.4%
  hypoglycemic activities for C57BL/6 mice: good hypoglycemic activities
[1]
  IC50: 2.72 nM
[2]
  IC50: 48 nM
[3]
  IC50: 3700 nM

## CO[C@@H]1C[C@@H]2CC(NCC(=O)N3C[C@@H](F)C[C@H]3C#N)C3(CC3)[C@@H]2C1 (stereo partly drawn) [Example 11, (2S,4S)-4-fluoro-1-(2-(((3a′S,5′R,6a′R)-5′-methoxyhexahydro-2′H-spiro[cyclopropane-1,1′-pentalen]-2′-yl)amino)acetyl)pyrrolidine-2-carbonitrile]
[1]
  IC50: 105 nM
[2]
  IC50: 916 nM
[3]
  IC50: 14200 nM

## CO[C@@H]1C[C@@H]2C[C@@](C)(NCC(=O)N3C[C@@H](F)C[C@H]3C#N)C[C@@H]2C1 [Example 2, (2S,4S)-4-fluoro-1-(2-(((2r,3aR,5S,6aS)-5-methoxy-2-methyloctahydropentalen-2-yl)amino)acetyl)pyrrolidine-2-carbonitrile]
[1]
  IC50: 4.03 nM
[2]
  IC50: 54 nM
[3]
  IC50: 1580 nM

## C[C@@]1(NCC(=O)N2CCC[C@H]2C#N)C[C@H]2C[C@@H](O)C[C@H]2C1 [Example 5, (S)-1-(2-(((2r,3aR,5S,6aS)-5-hydroxy-2-methyloctahydropentalen-2-yl)amino)acetyl)pyrrolidine-2-carbonitrile]
[1]
  IC50: 27.4 nM
[2]
  IC50: 4330 nM
